The record followed here is US12612395B2, “Rocaglate derivatives and uses thereof” (TRUSTEES OF BOSTON UNIVERSITY, priority 2023, dated 2026).

Structures are written as SMILES. Like-named read-outs stand apart in the source and are kept apart here.

The assay concerns GBM0308 CSCs. Kind of assay: Dose-response killing of GBM CSCs (PI/Hoechst, Celigo cytometer). The assay is classed as cell-based. The note with it: for CSCs Max. observed efficacy (% dead cells): up to 10 μM. The source says:
The inventors first evaluated a cohort of seven rocaglate translation inhibitors (1, 3-7, and 9, FIG. 1A and Table 1, compounds 2 and 8 were not tested due to unavailability). To assay for compounds that selectively affect GBM CSCs, the inventors employed the patient-derived tumor-initiating cell (TIC) cell line […] that forms neurospheres (consisting exclusively of tumor-initiating cells or CSCs) when cultured in neurobasal (NBE) medium. Upon exposure to serum and growth factor withdrawal, however, the cell line differentiates, acquires a flattened morphology, and forms a non-CSC population.^20 Thus, compounds can be tested in parallel to assess their effect on GBM CSCs vs. GBM non-CSCs as separate populations with a clean and robust response. This approach has been previously used to perform RNAi-based genetic screens to identify modulators of CSCs.^20 In this study, GBM0308 cells, cultured in stem cell conditions to form CSCs or in medium containing serum to induce differentiation into a non-CSC population, were treated in parallel with compounds at varying doses. Three days post-treatment, propidium iodide (PI) and Hoechst staining were performed and quantified using a Celigo image cytometer. Hoechst dye stained all […] nucleated cells, while PI exclusively stained dead cells. Cell viability and the percentage of cell death were then determined.
Cell Culture: Glioblastoma stem cell lines GBM0308, BT145, and BT112 were cultured in neurobasal (NBE medium) containing N-2 and B-27 supplements, EGF, bFGF, L-glutamine, and Penicillin-Streptomycin), as described previously.^19 Adherent GBM cells were cultured in serum-containing DMEM media (Invitrogen) supplemented with 10% fetal bovine serum (Corning Cellgro™). Cells were incubated at 37° C. and 5% CO2 to allow neurosphere formation. For seeding and subculturing, the neurospheres were gently trypsinized with 0.025% trypsin to form a single-cell suspension.
Dose-Response Testing in GBM Cells: Briefly, on day 1, cells were seeded in triplicate. For CSCs, 1500 cells/well were plated in a low attachment 96-well plate with NBE media and incubated for 3 days at 37° C. and 5% CO2 to allow the formation of neurospheres. For non-CSCs, 3000 cells/well were plated in a 96-well plate with DMEM media supplemented with 10% FBS. Similarly, the assay plates were also incubated for the same duration. Compound treatments started on day 4. Each compound was resuspended in DMSO and then diluted to different concentrations in media to a final concentration of DMSO less than 1%. The compounds were added at concentrations of 10, 3.3, 1.11, 0.37, 0.12, 0.041, 0.013, and 0.004 µM, respectively. DMSO-treated cells served as a control. After 72 h incubation with the compounds, fluorescent stains, propidium iodide, and Hoechst 33342 (Life Technologies, Carlsbad, CA), were used to stain the GBM cells to determine cell viability. A staining solution in 1×PBS was prepared by mixing PI and Hoechst 33342 to working concentrations of 2.5 μM and 20 μM, respectively. 20 μL of this staining solution was added per well, and plates were incubated at 37° C. and 5% CO2 for 60 min. After incubation, plates were read by Celigo imaging cytometer using an inbuilt Celigo application; Cell Viability (Dead+Total). For the viability measurement, the total number of neurospheres/cells and dead neurospheres/cells in each well were counted by the cytometer. The percentage of PI+ cells was normalized to DMSO and plotted against the drug concentration to calculate the EC50 with a four-parameter, variable-slope dose-response curve with an upper constraint of <100% dead cells and a lower constraint of =0% dead cells (GraphPad Prism v.10.0.0). For all dose response experiments, the experimental maximal efficacy (maximum observed % cell death) is reported. Relative EC50 values are reported for all compounds killing >50% of cells.

Take `CONC(=O)[C@H]1[C@@H](O)[C@@]2(O)c3c(OC)cc(OC)cc3O[C@@]2(c2ccc(OC)cc2)[C@@H]1c1ccccc1` [(−)-5, CR-1-31b, reference compound]: the EC50 (commonly the midpoint of the concentration-response curve) (GBM0308 CSCs, read-out: CSC EC50) amounted to 36 nM. Moreover, the “CSCs Max. observed efficacy (% dead cells)” value (Table 1, GBM0308 CSCs, 72 h) was 91%.
Turning to `CONC(=O)[C@H]1[C@@H](O)[C@@]2(O)c3c(OC)cc(OC)cc3O[C@@]2(c2ccc(Br)cc2)[C@@H]1c1ccccc1` [(−)-7, SDS-1-021], under “Table 1, GBM0308 CSCs, 72 h”, the “CSCs Max. observed efficacy (% dead cells)” value was determined as 92%. The EC50 (Table 1, GBM0308 CSCs, 72 h treatment, relative EC50, given for compounds causing at least 50% cell death, read-out: CSCs EC50) was 7 nM.
For the compound `COc1cc(OC)c2c(c1)O[C@@]1(c3ccc(Br)cc3)[C@H](c3ccccc3)[C@@H](C(=O)NS(=O)(=O)N(C)C)[C@@H](O)[C@@]21O` [(−)-20, (1R,2R,3S,3aR,8bS)-3a-(4-bromophenyl)-N—(N,N-dimethylsulfamoyl)-1,8b-dihydroxy-6,8-dimethoxy-3-phenyl-2,3,3a,8b-tetrahydro-1H-cyclopenta[b]benzofuran-2-carboxamide], the “fold by which potency of CSC death is higher than effects on cap-dependent translation” value (CSC EC50 vs translation EC50) is given as roughly 20 fold. Also, the EC50 (Homo sapiens, 72 h, Table 2, GBM0308 CSCs, 72 h treatment, relative EC50, read-out: CSCs EC50) is 45 nM. The Emax (Homo sapiens, 72 h, read-out: CSCs Max. observed efficacy (% dead cells), Table 2, GBM0308 CSCs, 72 h, highest tested concentration 10 μM) turned out to be 93%.
